pIC50: −log10 of the molar value.
Biological target: T1, MLK-7 (Homo sapiens, UniProt Q9NYL2)
T1 construct: GST; His tag; made in house; host or cells: Sf9 insect cells (baculovirus, pVL1392)
Experiment: In vitro assay of purified MLK-7 kinase activity (33P transfer from ATP to myelin basic protein)
Assay type: biochemical
Settings: recombinant GST-tagged MLK-7 at 1 nm, 30 uM ATP, 5 uM MBP substrate, 2 hours room temperature; read-out: MLK7 IC50
Method in brief: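 GST/His-tagged MLK-7 from Sf9 (baculovirus), 1 nM, with 5 uM MBP, 30 uM ATP plus 33P, 5 mM MgCl2, 2 mM DTT, 4% DMSO in 44 mM HEPES pH 7.4; 2 h at room temperature, stopped with phosphoric acid. Filter-bound 33P counted; IC50 for reduced phosphate transfer, Ki via Cheng-Prusoff.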

T1 sequence (Q9NYL2 1-455 isoform Q9NYL2-2): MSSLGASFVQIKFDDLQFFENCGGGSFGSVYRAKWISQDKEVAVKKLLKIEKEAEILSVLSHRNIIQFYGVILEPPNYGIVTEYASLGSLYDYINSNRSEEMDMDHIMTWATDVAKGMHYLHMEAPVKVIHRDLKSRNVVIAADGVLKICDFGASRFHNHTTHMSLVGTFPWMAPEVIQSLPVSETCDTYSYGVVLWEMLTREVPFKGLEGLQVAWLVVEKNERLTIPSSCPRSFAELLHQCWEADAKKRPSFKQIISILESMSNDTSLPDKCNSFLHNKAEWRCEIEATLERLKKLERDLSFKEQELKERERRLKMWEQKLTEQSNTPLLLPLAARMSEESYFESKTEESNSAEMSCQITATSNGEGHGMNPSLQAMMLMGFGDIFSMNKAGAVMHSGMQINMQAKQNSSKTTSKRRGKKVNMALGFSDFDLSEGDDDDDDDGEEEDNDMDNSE

pIC50	Compound
≥ 7.00	NC(=O)COc1ccc(-c2ccc3c(-c4c(-c5ccccn5)nn5c4CCC5)ccnc3c2)cc1 [Example 117, 2-{4-[4-(2-Pyridin-2-yl-5,6-dihydro-4H-pyrrolo[1,2-b]pyrazol-3-yl)quinolin-7-yl]phenoxy}acetamide Trifluoroacetic Acid]
≥ 7.00	FCCOc1ccc(-c2ccc3c(-c4c(-c5ccccn5)nn5c4CCC5)ccnc3c2)cc1 [Example 119, 7-[4-(2-Fluoroethoxy)phenyl]-4-(2-pyridin-2-yl-5,6-dihydro-4H-pyrrolo[1,2-b]pyrazol-3-yl)quinoline Trifluoroacetic Acid]
≥ 7.00	FC(F)(F)COc1ccc(-c2ccc3c(-c4c(-c5ccccn5)nn5c4CCC5)ccnc3c2)cc1 [Example 120, 4-(2-Pyridin-2-yl-5,6-dihydro-4H-pyrrolo[1,2-b]pyrazol-3-yl)-7-[4-(2,2,2-trifluoroethoxy)phenyl)quinoline Trifluoroacetic Acid]
≥ 7.00	CC(C)(C)OC(=O)NCCNC(=O)c1ccc(-c2ccc3c(-c4c(-c5ccccn5)nn5c4CCC5)ccnc3c2)cc1 [Example 121, (2-{4-[4-(2-Pyridin-2-yl-5,6-dihydro-4H-pyrrolo[1,2-b]pyrazol-3-yl)-quinolin-7-yl]-benzoylamino}-ethyl)-carbamic Acid tert-Butyl Ester]
≥ 7.00	O=C(c1ccc(-c2ccc3c(-c4c(-c5ccccn5)nn5c4CCC5)ccnc3c2)cc1)N1CCCCC1 [Example 122, Piperidin-1-yl-{4-[4-(2-pyridin-2-yl-5,6-dihydro-4H-pyrrolo[1,2-b]pyrazol-3-yl)-quinolin-7-yl]-phenyl}-methanone]
≥ 7.00	O=C(c1ccc(-c2ccc3c(-c4c(-c5ccccn5)nn5c4CCC5)ccnc3c2)cc1)N1CCSCC1 [Example 123, {4-[4-(2-Pyridin-2-yl-5,6-dihydro-4H-pyrrolo[1,2-b]pyrazol-3-yl)-quinolin-7-yl]-phenyl}-thiomorpholin-4-yl-methanone]
≥ 7.00	O=C(c1ccc(-c2ccc3c(-c4c(-c5ccccn5)nn5c4CCC5)ccnc3c2)cc1)N1CCOCC1 [Example 124, Morpholin-4-yl-{4-[4-(2-pyridin-2-yl-5,6-dihydro-4H-pyrrolo[1,2-b]pyrazol-3-yl)-quinolin-7-yl]-phenyl}-methanone]
≥ 7.00	NC(=O)CNC(=O)c1ccc(-c2ccc3c(-c4c(-c5ccccn5)nn5c4CCC5)ccnc3c2)cc1 [Example 125, N-Carbamoylmethyl-4-[4-(2-pyridin-2-yl-5,6-dihydro-4H-pyrrolo[1,2-b]pyrazol-3-yl)-quinolin-7-yl]-benzamide]
≥ 7.00	CC(C)NCCNC(=O)c1ccc(-c2ccc3c(-c4c(-c5ccccn5)nn5c4CCC5)ccnc3c2)cc1 [Example 126, N-(2-Isopropylamino-ethyl)-4-[4-(2-pyridin-2-yl-5,6-dihydro-4H-pyrrolo[1,2-b]pyrazol-3-yl)-quinolin-7-yl]-benzamide]
≥ 7.00	CCOC(=O)CCNC(=O)c1ccc(-c2ccc3c(-c4c(-c5ccccn5)nn5c4CCC5)ccnc3c2)cc1 [Example 128, 3-{4-[4-(2-Pyridin-2-yl-5,6-dihydro-4H-pyrrolo[1,2-b]pyrazol-3-yl)-quinolin-7-yl]-benzoylamino}-propionic Acid Ethyl Ester]
≥ 7.00	CC(C)(C)OC(=O)N1CCCC(NC(=O)c2ccc(-c3ccc4c(-c5c(-c6ccccn6)nn6c5CCC6)ccnc4c3)cc2)C1 (stereo not shown) [Example 130, 3-{4-[4-(2-Pyridin-2-yl-5,6-dihydro-4H-pyrrolo[1,2-b]pyrazol-3-yl)-quinolin-7-yl]-benzoylamino}-piperidine-1-carboxylic Acid tert-Butyl Ester]
≥ 7.00	O=C(NCCN1CCOCC1)c1ccc(-c2ccc3c(-c4c(-c5ccccn5)nn5c4CCC5)ccnc3c2)cc1 [Example 132, N-(2-Morpholin-4-yl-ethyl)-4-[4-(2-pyridin-2-yl-5,6-dihydro-4H-pyrrolo[1,2-b]pyrazol-3-yl)-quinolin-7-yl]-benzamide]
≥ 7.00	O=C(c1ccc(-c2ccc3c(-c4c(-c5ccccn5)nn5c4CCC5)ccnc3c2)cc1)N1CCS(=O)(=O)CC1 [Example 133, (1,1-Dioxo-1λ^6-thiomorpholin-4-yl)-{4-[4-(2-pyridin-2-yl-5,6-dihydro-4H-pyrrolo[1,2-b]pyrazol-3-yl)-quinolin-7-yl]-phenyl}-methanone]
≥ 6.00	CSC[C@@H](NC(=O)c1ccc(-c2ccc3c(-c4c(-c5ccccn5)nn5c4CCC5)ccnc3c2)cc1)C(=O)OC(C)(C)C [Example 134, 3-Methylsulfanyl-2(S)-{4-[4-(2-pyridin-2-yl-5,6-dihydro-4H-pyrrolo[1,2-b]pyrazol-3-yl)-quinolin-7-yl]-benzoylamino}-propionic Acid tert-Butyl Ester]
≥ 6.00	CC(C)(C)OC(=O)CC[C@H](NC(=O)c1ccc(-c2ccc3c(-c4c(-c5ccccn5)nn5c4CCC5)ccnc3c2)cc1)C(=O)OC(C)(C)C [Example 135, 2(S)-{4-[4-(2-Pyridin-2-yl-5,6-dihydro-4H-pyrrolo[1,2-b]pyrazol-3-yl)-quinolin-7-yl]-benzoylamino}-pentanedioic Acid Di-tert-Butyl Ester]
≥ 7.00	CN(C)C(=O)c1ccc(-c2ccc3c(-c4c(-c5ccccn5)nn5c4CCC5)ccnc3c2)cc1 [Example 136, N,N-Dimethyl-4-[4-(2-pyridin-2-yl-5,6-dihydro-4H-pyrrolo[1,2-b]pyrazol-3-yl)-quinolin-7-yl]-benzamide]
≥ 7.00	CC(C)(C)OC(=O)CCNC(=O)c1ccc(-c2ccc3c(-c4c(-c5ccccn5)nn5c4CCC5)ccnc3c2)cc1 [Example 137, 3-{4-[4-(2-Pyridin-2-yl-5,6-dihydro-4H-pyrrolo[1,2-b]pyrazol-3-yl)-quinolin-7-yl]-benzoylamino}-propionic Acid tert-Butyl Ester]
≥ 7.00	CNC(=O)c1ccc(-c2ccc3c(-c4c(-c5ccccn5)nn5c4CCC5)ccnc3c2)cc1 [Example 138, N-Methyl-4-[4-(2-pyridin-2-yl-5,6-dihydro-4H-pyrrolo[1,2-b]pyrazol-3-yl)-quinolin-7-yl]-benzamide]
≥ 7.00	CS(=O)(=O)CCNC(=O)c1ccc(-c2ccc3c(-c4c(-c5ccccn5)nn5c4CCC5)ccnc3c2)cc1 [Example 139, N-(2-Methanesulfonyl-ethyl)-4-[4-(2-pyridin-2-yl-5,6-dihydro-4H-pyrrolo[1,2-b]pyrazol-3-yl)-quinolin-7-yl]-benzamide]
≥ 7.00	CN(C)/C=N/C(=O)c1ccc(-c2ccc3c(-c4c(-c5ccccn5)nn5c4CCC5)ccnc3c2)cc1 [Example 140, N-Dimethylaminomethylene-4-[4-(2-pyridin-2-yl-5,6-dihydro-4H-pyrrolo[1,2-b]pyrazol-3-yl)-quinolin-7-yl]-benzamide]

Compound	pIC50
COCCOc1ccc(-c2ccc3c(-c4c(-c5ccccn5)nn5c4CCC5)ccnc3c2)cc1 [Example 118]	≥ 7.00
CC(C)(C)OC(=O)NCCCC[C@H](NC(=O)c1ccc(-c2ccc3c(-c4c(-c5ccccn5)nn5c4CCC5)ccnc3c2)cc1)C(=O)OC(C)(C)C [Example 131, 6-tert-Butoxycarbonylamino-2(S)-{4-[4-(2-pyridin-2-yl-5,6-dihydro-4H-pyrrolo[1,2-b]pyrazol-3-yl)-quinolin-7-yl]-benzoylamino}-hexanoic acid tert-butyl ester]	≥ 6.00

— US7511065B2, “Mixed lineage kinase modulators” (Eli Lilly and Company, priority 2002, dated 2009)
